# Assay results taken from PubChem BioAssay AID2060904 (Molecular Pharmacology Branch, DTP, NCI, 2025).
# System: 349418-098-R-PDC complex spheroid viability
# Test: Anticancer human tumor 349418-098-R-PDC patient-derived lung adenocarcinoma cell line growth inhibition [RAS]
# Settings: for IC50: curve of first compound; for viability, T/C: stronger effect = lower value
# Summary of the method: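 Tumour cells grown as complex spheroids with HUVEC endothelial cells and mesenchymal stem cells, treated with RAS pathway inhibitor combinations. Each agent spans half-log steps from near clinical Cmax, or 10 microM where Cmax is unknown.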
# [1] = second compound 0.000949 µM, first compound 0.0316 µM
# [2] = second compound 0.000949 µM, first compound 0.1 µM
# [3] = second compound 0.000949 µM, first compound 0.316 µM
# [4] = second compound 0.000949 µM, first compound 1 µM
# [5] = second compound 0.003 µM, first compound 0.0316 µM
# [6] = second compound 0.003 µM, first compound 0.1 µM
# [7] = second compound 0.003 µM, first compound 0.316 µM
# [8] = second compound 0.003 µM, first compound 1 µM
# [9] = second compound 0.00949 µM, first compound 0.0316 µM
# [10] = second compound 0.00949 µM, first compound 0.1 µM
# [11] = second compound 0.00949 µM, first compound 0.316 µM
# [12] = second compound 0.00949 µM, first compound 1 µM
# [13] = second compound 0.03 µM, first compound 0.0316 µM
# [14] = second compound 0.03 µM, first compound 0.1 µM
# [15] = second compound 0.03 µM, first compound 0.316 µM
# [16] = second compound 0.03 µM, first compound 1 µM
# [17] = second compound 0.0949 µM, first compound 0.0316 µM
# [18] = second compound 0.0949 µM, first compound 0.1 µM
# [19] = second compound 0.0949 µM, first compound 0.316 µM
# [20] = second compound 0.0949 µM, first compound 1 µM
# [21] = second compound 0.3 µM, first compound 0.0316 µM
# [22] = second compound 0.3 µM, first compound 0.1 µM
# [23] = second compound 0.3 µM, first compound 0.316 µM
# [24] = second compound 0.3 µM, first compound 1 µM
# 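Further: spheroids exposed to compound for seven days before viability readout.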
smiles,measurement,setting,value
CC(=O)OC12COC1CC(O)C1(C)C(=O)C(O)C3=C(C)C(OC(=O)C(O)C(NC(=O)OC(C)(C)C)c4ccccc4)CC(O)(C(OC(=O)c4ccccc4)C21)C3(C)C (centres undefined) + CCn1c(-c2cc(N3CCN(C)CC3)cnc2C(C)OC)c2c3cc(ccc31)-c1csc(n1)CC(NC(=O)C1CC1C)C(=O)N1CCCC(N1)C(=O)OCC(C)(C)C2,IC50,second compound 0.000949 µM,< 31.6 nM
same,IC50,second compound 0.003 µM,< 31.6 nM
same,IC50,second compound 0.00949 µM,< 31.6 nM
same,IC50,second compound 0.03 µM,< 31.6 nM
same,IC50,second compound 0.0949 µM,< 31.6 nM
same,IC50,second compound 0.3 µM,< 31.6 nM
same,"viability, T/C",[1],12.3%
same,"viability, T/C",[2],12.4%
same,"viability, T/C",[3],14.2%
same,"viability, T/C",[4],13.5%
same,"viability, T/C","second compound 0.000949 µM, first compound 3.16 µM",17.1%
same,"viability, T/C","second compound 0.000949 µM, first compound 10 µM",19.4%
same,"viability, T/C",[5],14.3%
same,"viability, T/C",[6],11.3%
same,"viability, T/C",[7],13.8%
same,"viability, T/C",[8],13.4%
same,"viability, T/C","second compound 0.003 µM, first compound 3.16 µM",15.2%
same,"viability, T/C","second compound 0.003 µM, first compound 10 µM",22.9%
same,"viability, T/C",[9],14.9%
same,"viability, T/C",[10],16.2%
same,"viability, T/C",[11],13.8%
same,"viability, T/C",[12],16%
same,"viability, T/C","second compound 0.00949 µM, first compound 3.16 µM",18.8%
same,"viability, T/C","second compound 0.00949 µM, first compound 10 µM",17.1%
same,"viability, T/C",[13],14.4%
same,"viability, T/C",[14],12.8%
same,"viability, T/C",[15],15.9%
same,"viability, T/C",[16],18%
same,"viability, T/C","second compound 0.03 µM, first compound 3.16 µM",18%
same,"viability, T/C","second compound 0.03 µM, first compound 10 µM",19.1%
same,"viability, T/C",[17],11.5%
same,"viability, T/C",[18],14.2%
same,"viability, T/C",[19],14.5%
same,"viability, T/C",[20],14.3%
same,"viability, T/C","second compound 0.0949 µM, first compound 3.16 µM",17.3%
same,"viability, T/C","second compound 0.0949 µM, first compound 10 µM",18%
same,"viability, T/C",[21],15.2%
same,"viability, T/C",[22],12.8%
same,"viability, T/C",[23],17.8%
same,"viability, T/C",[24],16.8%
same,"viability, T/C","second compound 0.3 µM, first compound 3.16 µM",21.4%
same,"viability, T/C","second compound 0.3 µM, first compound 10 µM",18.4%
Nc1ccn(C2OC(CO)C(O)C2(F)F)c(=O)n1 (centres undefined) + CCn1c(-c2cc(N3CCN(C)CC3)cnc2C(C)OC)c2c3cc(ccc31)-c1csc(n1)CC(NC(=O)C1CC1C)C(=O)N1CCCC(N1)C(=O)OCC(C)(C)C2,IC50,second compound 0.000949 µM,< 3.16 nM
same,IC50,second compound 0.003 µM,< 3.16 nM
same,IC50,second compound 0.00949 µM,< 3.16 nM
same,IC50,second compound 0.03 µM,< 3.16 nM
same,IC50,second compound 0.0949 µM,< 3.16 nM
same,IC50,second compound 0.3 µM,< 3.16 nM
same,"viability, T/C","second compound 0.000949 µM, first compound 0.00316 µM",33.4%
same,"viability, T/C","second compound 0.000949 µM, first compound 0.01 µM",6.66%
same,"viability, T/C",[1],5.75%
same,"viability, T/C",[2],4.77%
same,"viability, T/C",[3],5.22%
same,"viability, T/C",[4],4.87%
same,"viability, T/C","second compound 0.003 µM, first compound 0.00316 µM",21.9%
same,"viability, T/C","second compound 0.003 µM, first compound 0.01 µM",6.3%
same,"viability, T/C",[5],5.15%
same,"viability, T/C",[6],4.81%
same,"viability, T/C",[7],4.73%
same,"viability, T/C",[8],4.09%
same,"viability, T/C","second compound 0.00949 µM, first compound 0.00316 µM",24.4%
same,"viability, T/C","second compound 0.00949 µM, first compound 0.01 µM",6.44%
same,"viability, T/C",[9],5.46%
same,"viability, T/C",[10],4.39%
same,"viability, T/C",[11],5.27%
same,"viability, T/C",[12],4.67%
same,"viability, T/C","second compound 0.03 µM, first compound 0.00316 µM",29%
same,"viability, T/C","second compound 0.03 µM, first compound 0.01 µM",9.12%
same,"viability, T/C",[13],4.98%
same,"viability, T/C",[14],5.4%
same,"viability, T/C",[15],5.08%
same,"viability, T/C",[16],5.39%
same,"viability, T/C","second compound 0.0949 µM, first compound 0.00316 µM",43.2%
same,"viability, T/C","second compound 0.0949 µM, first compound 0.01 µM",10.6%
same,"viability, T/C",[17],4.96%
same,"viability, T/C",[18],5.29%
same,"viability, T/C",[19],5.26%
same,"viability, T/C",[20],4.88%
same,"viability, T/C","second compound 0.3 µM, first compound 0.00316 µM",46.8%
same,"viability, T/C","second compound 0.3 µM, first compound 0.01 µM",16.9%
same,"viability, T/C",[21],6.97%
same,"viability, T/C",[22],5.92%
same,"viability, T/C",[23],5.96%
same,"viability, T/C",[24],5.73%
